Structures can show the parent of a compound that is named as a salt. Where two headings read alike, the source gives them in different places.
Tested on: platelet aggregation
Experiment: Inhibition of platelet aggregation in vitro (rat blood);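 as to Inhibition of platelet aggregation in vitro (rat blood) in μM: aggregation induced by ADP added as 4 µL of a 250 µM solution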
Type: cell-based
Experimental: The measurements of platelet aggregation are performed at 37° C. in glass tubes (Chrono-Log—Kordia aggregometer).
Inhibition of Platelet Aggregation In Vitro (Rat Blood)
The blood is taken from male rats of the Sprague-Dawley strain, weighing 250-300 g.
The platelet-rich plasma (PRP) is obtained by centrifugation of the blood at 300 g for 5 minutes, and the measurements of platelet aggregation are performed as described above.
The results are calculated using the area under the curve of absorbance measured for 6 minutes, and expressed as percentage inhibition.

[1] = rat platelet-rich plasma, ADP-induced aggregation, area under the curve of absorbance for 6 minutes, read-out: Inhibition of platelet aggregation in vitro (rat blood);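 as to Inhibition of platelet aggregation in vitro (rat blood) in μM: aggregation induced by ADP added as 4 µL of a 250 µM solution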
[2] = rat blood, in vitro, read-out: Inhibition of platelet aggregation in vitro (rat blood);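 as to Inhibition of platelet aggregation in vitro (rat blood) in μM: aggregation induced by ADP added as 4 µL of a 250 µM solution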
[3] = 0.1 h, rat platelet-rich plasma, ADP-induced aggregation, area under the curve of absorbance for 6 minutes, read-out: Inhibition of platelet aggregation in vitro (rat blood);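 as to Inhibition of platelet aggregation in vitro (rat blood) in μM: aggregation induced by ADP added as 4 µL of a 250 µM solution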

Row | SMILES | IC50 [2] [µM] | IC50 [1] [µM] | further results
1 | CCCC(=O)c1cnn(-c2ccc(NC(=O)c3cn(CC(=O)N4CCC(N5CCOCC5)CC4)c4ccc(Cl)cc34)nn2)c1C [Compound 65] |  | 0.12 | 
2 | CCCC(=O)c1cnn(-c2ccc(NC(=O)c3cn(CC(=O)N4CCN(CC(=O)OC)CC4)c4ccc(Cl)cc34)nn2)c1C [Compound 87] |  | 0.04 | 
3 | CCCC(=O)c1cnn(-c2ccc(NC(=O)c3cn(CC(=O)N4CCN(C)CC4)c4cc(Cl)c(Cl)cc34)cc2)c1C [Compound 111] | 3.7 |  | 
4 | CCCC(=O)c1cnn(-c2cnc(NC(=O)c3cn(CC(=O)N4CCN(C)CC4)c4ccc(Cl)cc34)cn2)c1C [Compound 27, N-[5-(4-Butyryl-5-methyl-1H-pyrazol-1-yl)pyrazin-2-yl]-5-chloro-1-[2-(4-methylpiperazin-1-yl)-2-oxoethyl]-1H-indole-3-carboxamide hydrochloride] |  |  | IC50 (Rattus norvegicus, Platelet, 0.1 h, read-out: Inhibition of platelet aggregation in vitro (rat blood) in μM): 0.3 µM
5 | CCCC(=O)c1cnn(-c2ccc(NC(=O)c3cn(CC(=O)N4CCN(CC5CCCO5)CC4)c4ccc(Cl)cc34)nn2)c1C (racemic) [Compound 63] |  | 0.12 | 
6 | CCCC(=O)c1cnn(-c2ccc(NC(=O)c3cn(CC(=O)N4CCNC(C)C4)c4ccc(Cl)cc34)cc2)c1C (stereo not shown) [Compound 257] |  | 0.46 | 
7 | CCCC(=O)c1cnn(-c2ccc(NC(=O)c3cn(CC(=O)N4CCN(C5CCC5)CC4)c4ccc(Cl)cc34)nn2)c1C [Compound 79] |  | 0.08 | 
8 | CCCC(=O)c1cnn(-c2ccc(NC(=O)c3cn(CC(=O)N4CCCC4)c4ccc(Cl)cc34)nn2)c1C [Compound 40] |  | 0.1 | 
9 | CCCC(=O)c1cnn(-c2ccc(NC(=O)c3cn(CC(=O)NCC(C)(C)N(C)C)c4ccc(Cl)cc34)nn2)c1C [Compound 83] |  | 0.33 | 
10 | CCCC(=O)c1cnn(-c2ccc(NC(=O)c3cn(CC(=O)N4CCNCC4)c4ccc(Cl)cc34)cc2)c1C [Compound 256] |  | 0.23 | 
11 | CCCC(=O)c1cnn(-c2ccc(NC(=O)c3cn(CC(=O)N4CCC(NC)C4)c4ccc(C)cc34)cc2)c1C (stereo not shown) [Compound 250] |  | 0.61 | 
12 | CCCC(=O)c1cnn(-c2ccc(NC(=O)c3cn(CC(=O)N4CCN(Cc5ccc(OC)c(F)c5)CC4)c4ccc(Cl)cc34)nn2)c1C [Compound 85] |  | 0.1 | 
13 | CCCC(=O)c1cnn(-c2ccc(NC(=O)c3cn(CC(=O)O)c4ccc(Br)cc34)cc2)c1C [Compound 14] |  | 1.9 | 
14 | CCCC(=O)c1cnn(-c2ccc(NC(=O)c3cn(CC(=O)N4Cc5ccncc5C4)c4ccc(Cl)cc34)nn2)c1C [Compound 76] |  | 0.06 | 
15 | CCCC(=O)c1cnn(-c2ccc(NC(=O)c3cn(CC(=O)O)c4cc(F)c(Cl)cc34)cc2)c1C [Compound 21] |  | 2.8 | 
16 | CCCC(=O)c1cnn(-c2ccc(NC(=O)c3cn(CC(=O)N(C)CCOC)c4ccc(Cl)cc34)nn2)c1C [Compound 61] |  | 0.09 | 

Row | SMILES | IC50 [2] [µM] | IC50 [1] [µM] | further results
17 | CCCC(=O)c1cnn(-c2ccc(NC(=O)c3cn(CC(=O)N4CCN(Cc5ccncc5)CC4)c4ccc(Cl)cc34)nn2)c1C [Compound 102] |  | 0.03 | 
18 | CCCC(=O)c1cnn(-c2ccc(NC(=O)c3cn(CC(=O)N4CC5CCNC5C4)c4ccc(C)cc34)cc2)c1C (stereo not shown) [Compound 246] |  | 0.85 | 
19 | CCCC(=O)c1cnn(-c2ccc(NC(=O)c3cn(CC(=O)N(C)Cc4ccco4)c4ccc(Cl)cc34)nn2)c1C [Compound 62] |  | 0.15 | 
20 | CCCC(=O)c1cnn(-c2ccc(NC(=O)c3cn(CC(=O)N4CCN(CC(=O)N5CCCC5)CC4)c4ccc(Cl)cc34)nn2)c1C [Compound 46] |  | 0.04 | 
21 | CCCC(=O)c1cnn(-c2ccc(NC(=O)c3cn(CC(=O)N4CCCC(NC)C4)c4ccc(C)cc34)cc2)c1C (stereo not shown) [Compound 251] |  | 0.54 | 
22 | CCCC(=O)c1cnn(-c2ccc(NC(=O)c3cn(CC(=O)N4CCCC(N)C4)c4ccc(C)cc34)cc2)c1C (stereo not shown) [Compound 244] |  | 0.96 | 
23 | CCCC(=O)c1cnn(-c2ccc(NC(=O)c3cn(CC(=O)O)c4cc(C)c(Cl)cc34)cc2)c1C [Compound 4, Sodium (3-{[4-(4-butyryl-5-methyl-1H-pyrazol-1-yl)phenyl]carbamoyl}-5-chloro-6-methyl-1H-indol-1-yl)acetate] |  |  | IC50 [3]: 3.3 µM
24 | CCCC(=O)c1cnn(-c2ccc(NC(=O)c3cn(CC(=O)N4CC5CCN(C)C5C4)c4ccc(C)cc34)cc2)c1C (stereo not shown) [Compound 265] |  | 0.79 | 
25 | CCCC(=O)c1cnn(-c2ccc(NC(=O)c3cn(CC(=O)N4CCN(C)C(C)C4)c4ccc(C)cc34)cc2)c1C (stereo not shown) [Compound 269] |  | 0.35 | 
26 | CCCC(=O)c1cnn(-c2ccc(NC(=O)c3cn(CC(=O)O)c4ccc(N(C)C)cc34)cc2)c1C [Compound 22] |  | 1.2 | 
27 | CCCCN1CCN(C(=O)Cn2cc(C(=O)Nc3ccc(-n4ncc(C(=O)CCC)c4C)nn3)c3cc(Cl)ccc32)CC1 [Compound 55] |  | 0.16 | 
28 | CCCC(=O)c1cnn(-c2ccc(NC(=O)c3cn(CC(=O)O)c4ccc(Cl)cc34)cc2)c1C [Compound 3, (3-{[4-(4-butyryl-5-methyl-1H-pyrazol-1-yl)phenyl]carbamoyl}-5-chloro-1H-indol-1-yl)acetic acid] |  |  | IC50 [3]: 2.8 µM
29 | CCCC(=O)c1cnn(-c2ccc(NC(=O)c3cn(CC(=O)NCCO)c4ccc(Cl)cc34)nn2)c1C [Compound 33] |  | 0.08 | 
30 | CCCC(=O)c1cnn(-c2ccc(NC(=O)c3cn(CC(=O)N4CCN(CCOCC)CC4)c4ccc(Cl)cc34)nn2)c1C [Compound 93] |  | 0.15 | 
31 | CCCC(=O)c1cnn(-c2ccc(NC(=O)c3cn(CC(=O)N4CCN(C(C)=O)CC4)c4ccc(Cl)cc34)nn2)c1C [Compound 42] |  | 0.15 | 
32 | CCCC(=O)c1cnn(-c2ccc(NC(=O)c3cn(CC(=O)N4CCN(Cc5noc(C)n5)CC4)c4ccc(Cl)cc34)nn2)c1C [Compound 82] |  | 0.05 | 

Further lines, with some results ahead:

Row | IC50 [2] [µM] | SMILES | IC50 [1] [µM] | further results
33 | 0.29 | CCCC(=O)c1cnn(-c2ccc(NC(=O)c3cn(CC(=O)N4Cc5c[nH]nc5C4)c4ccc(Cl)cc34)cc2)c1C [Compound 175] |  | 
34 | 0.18 | CCCC(=O)c1cnn(-c2ccc(NC(=O)c3cn(CC(=O)N4CCN(C)CC4)c4cc(F)c(Cl)cc34)cc2)c1C [Compound 157] |  | 
35 | 0.65 | CCCC(=O)c1cnn(-c2ccc(NC(=O)c3cn(CC(=O)N4CCN(C5CCC5)CC4)c4ccc(Cl)cc34)cc2)c1C [Compound 201] |  | 
36 | 0.39 | CCCC(=O)c1cnn(-c2ccc(NC(=O)c3cn(CC(=O)N4CC(O)C4)c4ccc(Cl)cc34)cc2)c1C [Compound 176] |  | 
37 | 0.22 | CCCC(=O)c1cnn(-c2ccc(NC(=O)c3cn(CC(=O)N4CCN(C)CC4)c4ccc(Cl)cc34)c(C(N)=O)c2)c1C [Compound 220] |  | 
38 | 0.41 | CCCC(=O)c1cnn(-c2ccc(NC(=O)c3cn(CC(=O)N4CC(C)NC(C)C4)c4ccc(Cl)cc34)cc2)c1C (stereo not shown) [Compound 159] |  | 
39 | 0.5 | CCCC(=O)c1cnn(-c2ccc(NC(=O)c3cn(CC(=O)N(C)C)c4ccc(N(C)C)cc34)cc2)c1C [Compound 178] |  | 
40 | 1.38 | CCCC(=O)c1cnn(-c2ccc(NC(=O)c3cn(CC(=O)N4CCN(C)CC4)c4ccc(C#N)cc34)cc2)c1C [Compound 160] |  | 
41 | 0.26 | CCCC(=O)c1cnn(-c2ccc(NC(=O)c3cn(CC(=O)N4CCN(CC(=O)OCC)CC4)c4ccc(Cl)cc34)cc2)c1C [Compound 155] |  | 
42 | 0.57 | CCCC(=O)c1cnn(-c2ccc(NC(=O)c3cn(CC(=O)N4CC(O)CC4C(=O)NC4CCC4)c4ccc(Cl)cc34)cc2)c1C (stereo not shown) [Compound 171] |  | 
43 | 0.45 | CCCC(=O)c1cnn(-c2ccc(NC(=O)c3cn(CC(=O)N4CCN(C5CC5)CC4)c4ccc(C)cc34)cc2)c1C [Compound 122] |  | 
44 | 0.62 | CCCC(=O)c1cnn(-c2ccc(NC(=O)c3cn(CC(=O)N4CCN(C)CC4)c4cc(C)c(Cl)cc34)cc2)c1C [Compound 113] |  | 
45 | 0.41 | CCCC(=O)c1cnn(-c2ccc(NC(=O)c3cn(CC(=O)N4CCC(F)(F)C4)c4ccc(Cl)cc34)cc2)c1C [Compound 189] |  | 
46 | 0.29 | CCCC(=O)c1cnn(-c2ccc(NC(=O)c3cn(CC(=O)N4CCN(CCC(=O)OCC)CC4)c4ccc(Cl)cc34)cc2)c1C [Compound 153] |  | 
47 | 0.36 | CCCC(=O)c1cnn(-c2ccc(NC(=O)c3cn(CC(=O)N4CCN(C)CC4)c4cc(C)c(Br)cc34)cc2)c1C [Compound 112] |  | 
48 | 0.34 | CCCC(=O)c1cnn(-c2ccc(NC(=O)c3cn(CC(=O)N4CCN(CCOC)CC4)c4cc(F)c(Cl)cc34)cc2)c1C [Compound 158] |  | 
49 | 0.76 | CCCC(=O)c1cnn(-c2ccc(NC(=O)c3cn(CC(=O)N(C)CCNC)c4ccc(C)cc34)cc2)c1C [Compound 126] |  | 
50 | 0.29 | CCCC(=O)c1cnn(-c2ccc(NC(=O)c3cn(CC(=O)N4CCN(CC(=O)NC)CC4)c4ccc(Cl)cc34)cc2)c1C [Compound 163] |  | 
51 | 0.28 | CCCC(=O)c1cnn(-c2ccc(NC(=O)c3cn(CC(=O)N4CCN(CCN(C)C(C)=O)CC4)c4ccc(Cl)cc34)cc2)c1C [Compound 211] |  | 
52 | 0.16 | CCCC(=O)c1cnn(-c2ccc(NC(=O)c3cn(CC(=O)N4CCN(C5COC5)CC4)c4ccc(Cl)cc34)cc2)c1C [Compound 191] |  | 
53 | 0.35 | CCCC(=O)c1cnn(-c2ccc(NC(=O)c3cn(CC(=O)N4CCN5CCCC5C4)c4ccc(C)cc34)cc2)c1C (stereo not shown) [Compound 123] |  | 
54 | 0.95 | CCCC(=O)c1cnn(-c2ccc(NC(=O)c3cn(CC(=O)NCCn4ccnc4)c4ccc(C)cc34)cc2)c1C [Compound 134] |  | 
55 | 0.65 | CCCC(=O)c1cnn(-c2ccc(NC(=O)c3cn(CC(=O)N4CCN(CC(F)(F)F)CC4)c4ccc(C)cc34)cc2)c1C [Compound 129] |  | 
56 | 0.47 | CCCC(=O)c1cnn(-c2ccc(NC(=O)c3cn(CC(=O)N4CCN(Cc5ccc(Cl)cc5)CC4)c4ccc(Cl)cc34)cc2)c1C [Compound 167] |  | 
57 | 0.19 | CCCC(=O)c1cnn(-c2ccc(NC(=O)c3cn(CC(=O)N4CCN(CCOCCO)CC4)c4ccc(Cl)cc34)cc2)c1C [Compound 144] |  | 
58 | 0.25 | CCCC(=O)c1cnn(-c2ccc(NC(=O)c3cn(CC(=O)N4CCN(C)C(C)(C)C4)c4ccc(Cl)cc34)cc2)c1C [Compound 186] |  | 

From US8623862B2, “Derivatives of N-[(1H-pyrazol-1-yl)aryl]-1H-indole or 1H-indazole-3-carboxamide, preparation thereof and applications thereof in therapeutics” (Sanofi, priority 2011, dated 2014)
